This is an account of results in patent US9642366B2, “Active substance combinations that have nematicidal, insecticidal, and fungicidal properties and are based on trifluorobutenyl compounds” (priority 2003, dated 2017).

In one experiment the test system is Phythium ultimum. Put plainly: Mycelium growth test with Phythium ultimum. It is filed as cell-based. To be noted: single active compound.
In the next experiment the test system is Meloidogyne incognita. Put plainly: Meloidogyne test (nematicidal action, gall formation on lettuce roots). To be noted: single active compound. The format is in vivo. The text has this:
(§1) The expected action for a given combination of two active compounds can be calculated as follows (cf. Colby, S. R., “Calculating Synergistic and Antagonistic Responses of Herbicide Combinations”, Weeds 15 (1967), 20-22):
(§2) If • X is the efficacy or kill rate, expressed as a percentage of the untreated control, when employing active compound A in a concentration of m ppm, • Y is the efficacy or kill rate, expressed as a percentage of the untreated control, when employing active compound B in a concentration of […] and • E is the efficacy or kill rate, expressed as a percentage of the untreated control, when employing active compounds A and B in a concentration of m and n ppm,
(§3) If the actual fungicidal or nematicidal, insecticidal and/or acaricidal action exceeds the calculated value, the action of the combination is superadditive, i.e. a synergistic effect is present. In this case, the actually observed efficacy or kill rate must exceed the value calculated using the above formula for the expected efficacy (E).
Solvent: 7 parts by weight of dimethylformamide
Emulsifier: 2 parts by weight of alkylaryl polyglycol ether
To produce a suitable preparation of active compound, 1 part by weight of active compound is mixed with the stated amounts of solvent and emulsifier, and the concentrate is diluted with water to the desired concentration.
Vessels are filled with sand, solution of active compound, Meloidogyne incognita egg/larvae suspension and lettuce seeds. The lettuce seeds germinate and plants develop. On the roots, galls are formed.
After the desired period of time, the nematicidal action is determined in % by the formation of galls. 100% means that no galls have been found; 0% means that the number of galls on the treated plants corresponds to that of the untreated control. The determined kill rates are inserted into Colby's formula.

Another experiment relates to Phytophthora cactorum. The experiment can be described thus: Mycelium growth test with Phytophthora cactorum. As to conditions: single active compound. It is filed as cell-based.
The test system of the next experiment is Rhizoctonia solani. The experiment can be described thus: Mycelium growth test with Rhizoctonia solani. As to conditions: single active compound. The format is cell-based.
For experiment [1], the system named is Plutella xylostella, sensitive strain. Put plainly: Plutella test, sensitive strain (insecticidal action, dipped cabbage leaves). The format is in vivo. To be noted: 100 ppm, single active compound.
Excerpt: as §1, §2, §3
Solvent: 7 parts by weight of dimethylformamide […]
Cabbage leaves (Brassica oleracea) are treated by being dipped into the preparation of active compound of the desired concentration and are populated with caterpillars of the diamondback moth (Plutella xylostella, sensitive strain) while the leaves are still moist. After the desired period of time, the kill in % is determined. […]

For the next experiment, the system named is Fusarium nivale. The experiment can be described thus: Mycelium growth test with Fusarium nivale. As to conditions: 1 ppm in the nutrient medium, single active compound. The format is cell-based.

“And” between values parts separate entries of the source, which are not always exact repeats. Identical values can stand only once.

`CC(C)NC(=O)N1CC(=O)N(c2cc(Cl)cc(Cl)c2)C1=O` [iprodione]: the “Efficacy [%]” value in the experiment on Phythium ultimum (200 ppm in the nutrient medium) amounted to 9%.

`N#Cc1c[nH]cc1-c1cccc2c1OC(F)(F)O2` [fludioxonil]: the “Kill rate [%] after 14 days” value in the experiment with Meloidogyne incognita (20 ppm) is 0%.

Take `CCCN(CCOc1c(Cl)cc(Cl)cc1Cl)C(=O)n1ccnc1` [prochloraz]: in the experiment on Phytophthora cactorum (50 ppm in the nutrient medium), the “Efficacy [%]” value is recorded as 30%.

Regarding `CC(C)(C)C(O)(CCc1ccc(Cl)cc1)Cn1cncn1` (centres unmarked) [tebuconazole], the “Efficacy [%]” value with Phytophthora cactorum (100 ppm in the nutrient medium) is reported as 12%; in the experiment with Phythium ultimum (100 ppm in the nutrient medium), 72%.

For `OC(Cc1ccccc1Cl)(Cn1nc[nH]c1=S)C1(Cl)CC1` (centres unmarked) [prothioconazole], the “Kill rate [%] after 14 days” value in the experiment with Meloidogyne incognita (20 ppm) is given as 50%.

Turning to `CO/N=C(\C(=O)OC)c1ccccc1CO/N=C(\C)c1cccc(C(F)(F)F)c1` [trifloxystrobin], the “Efficacy [%]” value in the experiment with Rhizoctonia solani (1 ppm in the nutrient medium) stood at 39%; in the experiment with Phytophthora cactorum (10 ppm in the nutrient medium), 29%. In experiment [1], the “Kill rate [%] after 3 days” value came to 15%. For the same molecule, the “Kill rate [%] after 14 days” value with Meloidogyne incognita (20 ppm) came to 0%.

For the molecule `O=C(Nc1ccccc1)N(Cc1ccc(Cl)cc1)C1CCCC1` [pencycuron], the “Efficacy [%]” value in the experiment on Phytophthora cactorum (200 ppm in the nutrient medium) is 0%.

On to tolylfluanid, for which the “Efficacy [%]” value worked out at 65% with Phytophthora cactorum (10 ppm in the nutrient medium) and 82% in the experiment on Phythium ultimum (10 ppm in the nutrient medium).

In the case of `O=S(=O)(CCC(F)=C(F)F)c1ncc(Cl)s1` [(IC)], the “Efficacy [%]” value in the experiment with Rhizoctonia solani (1 ppm in the nutrient medium) is 0%; with Rhizoctonia solani (10 ppm in the nutrient medium) it was 49%; in the experiment on Phytophthora cactorum (50 ppm in the nutrient medium) it was 7%; in the experiment with Phytophthora cactorum (100 ppm in the nutrient medium) it was 18% and 23%; in the experiment with Fusarium nivale, 15%. Moreover, the “Kill rate [%] after 3 days” value in experiment [1] is reported as 0%. For the same molecule, the “Kill rate [%] after 14 days” value in the experiment with Meloidogyne incognita (0.8 ppm) is 50%.

Turning to `CO/N=C(/C1=NOCCO1)c1ccccc1Oc1ncnc(Oc2ccccc2Cl)c1F` [fluoxastrobin], the “Efficacy [%]” value in the experiment on Rhizoctonia solani (1 ppm in the nutrient medium) was found to be 39%; in the experiment on Phytophthora cactorum (5 ppm in the nutrient medium), 28%; with Phythium ultimum (10 ppm in the nutrient medium), 74%.
